Data published in US10323038B2, “Pyrazole compounds and methods of making and using same” (ABIDE THERAPEUTICS, INC., priority 2015, dated 2019).

Key:
MAGL = MAGL (Mus musculus (Mouse), UniProt O35678); experiment: In vitro competitive activity-based protein profiling, MAGL (mouse); format: biochemical; settings: for inhibition at 1 µM: read-out: MAGL % inh. 1 μM (mouse)
Procedure, shortened: (§1)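 Residual MAGL and FAAH activity quantified from fluorescent gel bands after SDS-PAGE. Before that, FP-Rh or HT-01 probe (50 μM stock) labelled for 30 min at 37 °C, following 30 min inhibitor preincubation. Mouse assays used brain membrane fraction or cell lysates, human used prefrontal cortex or cell membranes, all at 1.0 mg/mL protein.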

FAAH = FAAH (Mus musculus (Mouse), UniProt O08914); experiment: In vitro competitive activity-based protein profiling, FAAH (mouse); format: biochemical; settings: for inhibition at 1 µM: read-out: FAAH % inh. 1 μM (mouse)
FAAH, sequence (O08914 whole entry): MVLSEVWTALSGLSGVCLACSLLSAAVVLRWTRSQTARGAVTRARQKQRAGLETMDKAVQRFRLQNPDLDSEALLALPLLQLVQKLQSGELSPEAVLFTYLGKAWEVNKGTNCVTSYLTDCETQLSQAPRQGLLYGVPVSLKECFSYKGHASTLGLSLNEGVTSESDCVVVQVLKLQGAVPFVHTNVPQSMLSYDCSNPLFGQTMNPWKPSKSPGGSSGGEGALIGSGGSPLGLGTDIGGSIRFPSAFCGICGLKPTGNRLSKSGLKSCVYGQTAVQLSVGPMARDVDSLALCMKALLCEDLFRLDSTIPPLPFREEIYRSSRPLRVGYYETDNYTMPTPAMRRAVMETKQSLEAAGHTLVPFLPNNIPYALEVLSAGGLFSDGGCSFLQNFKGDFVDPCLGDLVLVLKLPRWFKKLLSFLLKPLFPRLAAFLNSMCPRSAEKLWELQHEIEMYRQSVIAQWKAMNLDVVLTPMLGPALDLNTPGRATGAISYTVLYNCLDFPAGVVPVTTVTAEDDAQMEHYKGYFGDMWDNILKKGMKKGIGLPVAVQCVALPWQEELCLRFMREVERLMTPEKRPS
Procedure, shortened: as §1

MAGL, sequence (O35678 whole entry): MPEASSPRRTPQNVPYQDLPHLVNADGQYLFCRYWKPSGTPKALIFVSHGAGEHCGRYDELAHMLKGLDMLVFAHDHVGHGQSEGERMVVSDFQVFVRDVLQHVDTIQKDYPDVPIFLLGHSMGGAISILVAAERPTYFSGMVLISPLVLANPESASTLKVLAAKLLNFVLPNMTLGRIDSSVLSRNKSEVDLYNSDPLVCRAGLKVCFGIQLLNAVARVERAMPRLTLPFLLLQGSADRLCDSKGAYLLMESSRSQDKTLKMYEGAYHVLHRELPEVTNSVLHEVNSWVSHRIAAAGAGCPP

SMILES | IC50 (MAGL) | inhibition at 1 µM (MAGL) | IC50 (FAAH) | inhibition at 1 µM (FAAH)
CC(=O)N(C)c1cnn(C(=O)N2C[C@H]3C[C@H](N(C)Cc4cccc(Cl)c4)C[C@H]3C2)c1 [Example 147, N-(1-(trans-5-((3-chlorobenzyl)(methyl)amino)octahydrocyclopenta[c]pyrrole-2-carbonyl)-1H-pyrazol-4-yl)-N-methylacetamide] | ≤ 100 nM | ≥ 75% | ≤ 100 nM | ≥ 75%
CC(=O)N(C)c1cnn(C(=O)N2C[C@H]3C[C@@H](N(C)Cc4ccc(N5C6CCC5COC6)cc4C(F)(F)F)C[C@H]3C2)c1 [Example 149, N-(1-(cis-5-((4-(3-oxa-8-azabicyclo[3.2.1]octan-8-yl)-2-(trifluoromethyl)benzyl)(methyl)amino)octahydrocyclopenta[c]pyrrole-2-carbonyl)-1H-pyrazol-4-yl)-N-methylacetamide] |  | ≥ 75% |  | ≥ 75%
CC(=O)N(C)c1cnn(C(=O)N2C[C@H]3C[C@@H](N(C)Cc4ccc(N5C6CCC5COC6)c(C(F)(F)F)c4)C[C@H]3C2)c1 [Example 150, N-(1-(cis-5-((4-(3-oxa-8-azabicyclo[3.2.1]octan-8-yl)-3-(trifluoromethyl)benzyl)(methyl)amino)octahydrocyclopenta[c]pyrrole-2-carbonyl)-1H-pyrazol-4-yl)-N-methylacetamide] | 100 to 1000 nM | ≥ 75% | ≤ 100 nM | ≥ 75%
CC(=O)N(C)c1cnn(C(=O)N2C[C@H]3C[C@@H](N(C)Cc4cc(N5C6CCC5COC6)cc(C(F)(F)F)c4)C[C@H]3C2)c1 [Example 151, N-(1-(cis-5-((3-(3-oxa-8-azabicyclo[3.2.1]octan-8-yl)-5-(trifluoromethyl)benzyl)(methyl)amino)octahydrocyclopenta[c]pyrrole-2-carbonyl)-1H-pyrazol-4-yl)-N-methylacetamide] | 100 to 1000 nM | ≥ 75% | 100 to 1000 nM | ≥ 75%
CC(=O)N(C)c1cnn(C(=O)N2C[C@H]3C[C@@H](N(C)Cc4ccc(N5CCCC5)cc4C(F)(F)F)C[C@H]3C2)c1 [Example 152, N-methyl-N-(1-(cis-5-(methyl(4-(pyrrolidin-1-yl)-2-(trifluoromethyl)benzyl)amino)octahydrocyclopenta[c]pyrrole-2-carbonyl)-1H-pyrazol-4-yl)acetamide] |  | ≥ 75% |  | ≥ 75%
CC(=O)N(C)c1cnn(C(=O)N2C[C@H]3C[C@@H](N(C)Cc4ccc(N5CCCC5)c(C(F)(F)F)c4)C[C@H]3C2)c1 [Example 153, N-methyl-N-(1-(cis-5-(methyl(4-(pyrrolidin-1-yl)-3-(trifluoromethyl)benzyl)amino)octahydrocyclopenta[c]pyrrole-2-carbonyl)-1H-pyrazol-4-yl)acetamide] |  | ≥ 75% |  | ≥ 75%
CC(=O)N(C)c1cnn(C(=O)N2C[C@H]3C[C@@H](N(C)Cc4cc(N5CCCC5)cc(C(F)(F)F)c4)C[C@H]3C2)c1 [Example 154, N-methyl-N-(1-(cis-5-(methyl(3-(pyrrolidin-1-yl)-5-(trifluoromethyl)benzyl)amino)octahydrocyclopenta[c]pyrrole-2-carbonyl)-1H-pyrazol-4-yl)acetamide] |  | ≥ 75% |  | ≥ 75%
CC(=O)N(C)c1cnn(C(=O)N2C[C@H]3C[C@H](N(C)Cc4ccc(N5C6CCC5COC6)cc4C(F)(F)F)C[C@H]3C2)c1 [Example 155, N-(1-(trans-5-((4-(3-oxa-8-azabicyclo[3.2.1]octan-8-yl)-2-(trifluoromethyl)benzyl)(methyl)amino)octahydrocyclopenta[c]pyrrole-2-carbonyl)-1H-pyrazol-4-yl)-N-methylacetamide] |  | ≥ 75% |  | ≥ 75%
CC(=O)N(C)c1cnn(C(=O)N2C[C@H]3C[C@H](N(C)Cc4ccc(N5C6CCC5COC6)c(C(F)(F)F)c4)C[C@H]3C2)c1 [Example 156, N-(1-(trans-5-((4-(3-oxa-8-azabicyclo[3.2.1]octan-8-yl)-3-(trifluoromethyl)benzyl)(methyl)amino)octahydrocyclopenta[c]pyrrole-2-carbonyl)-1H-pyrazol-4-yl)-N-methylacetamide] | 100 to 1000 nM | ≥ 75% | ≤ 100 nM | ≥ 75%
CC(=O)N(C)c1cnn(C(=O)N2C[C@H]3C[C@H](N(C)Cc4cc(N5C6CCC5COC6)cc(C(F)(F)F)c4)C[C@H]3C2)c1 [Example 157, N-(1-(trans-5-((3-(3-oxa-8-azabicyclo[3.2.1]octan-8-yl)-5-(trifluoromethyl)benzyl)(methyl)amino)octahydrocyclopenta[c]pyrrole-2-carbonyl)-1H-pyrazol-4-yl)-N-methylacetamide] |  | ≥ 75% |  | ≥ 75%
CC(=O)N(C)c1cnn(C(=O)N2C[C@H]3C[C@H](N(C)Cc4ccc(N5CCCC5)cc4C(F)(F)F)C[C@H]3C2)c1 [Example 158, N-methyl-N-(1-(trans-5-(methyl(4-(pyrrolidin-1-yl)-2-(trifluoromethyl)benzyl)amino)octahydrocyclopenta[c]pyrrole-2-carbonyl)-1H-pyrazol-4-yl)acetamide] |  | ≥ 75% |  | ≥ 75%
CC(=O)N(C)c1cnn(C(=O)N2C[C@H]3C[C@H](N(C)Cc4ccc(N5CCCC5)c(C(F)(F)F)c4)C[C@H]3C2)c1 [Example 159, N-methyl-N-(1-(trans-5-(methyl(4-(pyrrolidin-1-yl)-3-(trifluoromethyl)benzyl)amino)octahydrocyclopenta[c]pyrrole-2-carbonyl)-1H-pyrazol-4-yl)acetamide] |  | ≥ 75% |  | ≥ 75%
CC(=O)N(C)c1cnn(C(=O)N2C[C@H]3C[C@H](N(C)Cc4cc(N5CCCC5)cc(C(F)(F)F)c4)C[C@H]3C2)c1 [Example 160, N-methyl-N-(1-(trans-5-(methyl(3-(pyrrolidin-1-yl)-5-(trifluoromethyl)benzyl)amino)octahydrocyclopenta[c]pyrrole-2-carbonyl)-1H-pyrazol-4-yl)acetamide] |  | ≥ 75% |  | ≥ 75%
CC(=O)N(C)c1cnn(C(=O)N2C[C@H]3C[C@@H](N(C)Cc4cc(Cl)ccc4C(F)(F)F)C[C@H]3C2)c1 [Example 161, N-(1-(cis-5-((5-chloro-2-(trifluoromethyl)benzyl)(methyl)amino)octahydrocyclopenta[c]pyrrole-2-carbonyl)-1H-pyrazol-4-yl)-N-methylacetamide] | ≤ 100 nM | ≥ 75% | ≤ 100 nM | ≥ 75%
CC(=O)N(C)c1cnn(C(=O)N2C[C@H]3C[C@@H](N(C)Cc4cc(Cl)ccc4Cl)C[C@H]3C2)c1 [Example 162, N-(1-(cis-5-((2,5-dichlorobenzyl)(methyl)amino)octahydrocyclopenta[c]pyrrole-2-carbonyl)-1H-pyrazol-4-yl)-N-methylacetamide] |  | ≥ 75% |  | ≥ 75%
